Reference: patent US6458585B1, “Cytokine-free culture of dendritic cells” (Nexell Therapeutics Inc., priority 1996, dated 2002)

What was measured:
Assay type in all cases: cell-based, human
adherent PBMNC = test: S100 immunohistochemistry of plastic adherent cells cultured with non-cytokine additives; conditions: for percentage of S100+ cells: without GM-CSF added to additives
Protocol: Immunocytochemical staining: PBS (phosphate buffered saline) was made by dissolving 5 PBS tablets into 1000 ml millipore water. Cytospin slides were soaked in PBS. […] Slides were rinsed with PBS one time. Non-specific binding sites were blocked by incubating with normal serum matching source of secondary antibody (i.e. if secondary antibody is biotinylated goat-anti-mouse, used normal goat serum) at room temp. for 15 min. in a humidified environment. Excess serum was shaken from slides and placed 100 ul of primary antibody on slide, making sure cells are covered with liquid and incubated in humidified environment, room temp, for one hour. Negative control slides were incubated with normal serum for this hour. Slides were rinsed 3 times with PBS. Slides were incubated with biotinylated antibody reactive against the primary antibody (i.e. if primary antibody is mouse-anti-human, use a biotinylated goat-anti-mouse antibody) for 1 hour in humidity. Slides were rinsed 3 times with PBS. Slides were incubated with streptavidin-peroxidase, 2 drops/slide, for 30 min. in humidity. Slides were rinsed 3 times with PBS.
(§1) Chromagen solution was made with 5 ml millipore water+2 drops of chromagen buffer+1 drop of concentrated chromagen+1 drop of substrate, and 4-5 drops were added to each slide. […] Slides were counterstained with hematoxylin for about 5 min, or until cell nuclei were stained purple. Cells were rinsed with tap water and allowed to air dry. Slides were covered with crystal mount and oven dried at 80 degrees for 15 min. Slides were allowed to cool, then coversliped with mounting medium.
Enrichment and Culture of Adherent Cells Using Polystyrene Tissue Culture Plates: PBMNC were resuspended in culture media (X-VIVO 15™+10% autologous serum) at 2×10^6 cells/ml. Cells were placed into 48 well polystyrene tissue culture plates […] and incubated for 2 hours in a 5% CO2, ambient O2, 37° C. humidified incubator. Non-adherent cells were removed from the plates then wells were rinsed with X-VIVO 15™ containing no serum. Cells remaining in the wells were adherent cells. These cells were cultured by adding 2 ml of X-VIVO 15™ to each well plus GM-CSF and IL-4 at final concentrations of 50 ng/ml and 1000 U/ml or the following: cAMP at 0.5 mM, dibutyryl cAMP at 0.1 mM, NaF at 0.25 mM, theophylline at 0.5 mM, PGE at 0.1 mM, Vitamin D3 at 2.5 uM, Vitamin E at 0.1%, Retinoic Acid at 10^−6 M, PMA at 1 pM, Linoleic Acid at 5 ug/ml, or Ca^++ Ionophore at 10 mM. Furthermore, cells were also cultured with the above non-cytokine additives plus GM-CSF at 50 ng/ml. Cells were cultured in a 5% CO2, ambient O2, 37° C. humidified incubator for 7 days.
(§2) Cytospin slide preparation, Wright-Geimsa and immunohistochemical staining of the cultured cells were conducted as described in Example 1 and 2 above. Mixed lymphocyte reactions (MLR's) were setup using T cells (responders) and dendritic cell enriched cultures (stimulators) from bulk PBMNC cultures, as described above in Example 1.
Results: In the set of experiments using plastic adherent cells grown in polystyrene tissue culture plates, a Day 0 analysis of the cells was not performed. However, these cultures were analyzed for the presence of DC on days 4 and 7. Analysis perfomed were cell counts, viability via propidium iodide, morphology under Wright-Geimsa staining, and immunohistochemical staining using an anti-S100 antibody.

T cells = test: Allogeneic MLR with bulk PBMNC cultures grown with non-cytokine additives
Protocol: MLR's were setup using T cells as responders and dendritic cell enriched cultures as antigen presenters. Sheep red blood cells were prepared and used to erythrocyte rosette T cells from a MNC preparation as described in “Current Protocols in Immunology”, John Wiley & Sons Inc, 1995. Vol. 2, 7.2.1-7.2.4. Erythrocyte+(E+ ) T cells were resuspended to 1×10^6 cells/ml in RPMI 1640/10% FCS. Dendritic cells were resuspended to 1×10^6 cells/ml in RPMI 1640/10% FCS and mitomycin C was added at 25 ug/ml to inhibit proliferation. The tubes were incubated at 37° C. for 30 min. then washed 3 times with PBS-CMF/1% HA. […] […] The appropriate control wells were also prepared. Plates were incubated for 4 or 5 days at 37° C.
Each well was pulsed with 1 uCi of ^3H-thymidine in RPMI 1640/10% FCS. Plates were incubated overnight at 37° C.
Plates were harvested onto glass fiber filter strips using a cell harvester. Discs were placed into scintillation vials containing scintillation cocktail and samples were counted using a beta radiation counter.
as §2
The functional capacity of cultured cells to induce T cell proliferation was measured in an allogeneic MLR. […] At the greatest ratio of 1:100, the differences in capacity to induce T cell proliferation is marginal between the GM-CSF/IL-4 cultured cells and the non-cytofine additive cultured cells.

Bulk PBMNC = test: S100+ cells in bulk PBMNC cultures with non-cytokine additives; conditions: day 7; average
Protocol: Immunocytochemical staining: PBS (phosphate buffered saline) was made by dissolving 5 PBS tablets into 1000 ml millipore water. Cytospin slides were soaked in PBS. Endogenous peroxidase activity was blocked by treating slides with hydrogen peroxide/PBS (2 ml 30% H2O2+30 ml PBS) for 10 min. Slides were rinsed with PBS one time. Non-specific binding sites were blocked by incubating with normal serum matching source of secondary antibody (i.e. if secondary antibody is biotinylated goat-anti-mouse, used normal goat serum) at room temp. for 15 min. in a humidified environment. Excess serum was shaken from slides and placed 100 ul of primary antibody on slide, making sure cells are covered with liquid and incubated in humidified environment, room temp, for one hour. Negative control slides were incubated with normal serum for this hour. Slides were rinsed 3 times with PBS. Slides were incubated with biotinylated antibody reactive against the primary antibody (i.e. if primary antibody is mouse-anti-human, use a biotinylated goat-anti-mouse antibody) for 1 hour in humidity. Slides were rinsed 3 times with PBS. Slides were incubated with streptavidin-peroxidase, 2 drops/slide, for 30 min. in humidity. Slides were rinsed 3 times with PBS.
as §1
Culture of Bulk PBMNC: PBMNC cells were cultured in X-VIVO 15™ supplemented with 2 mM L- glutamine. Cultures were initiated at 5×^05 cells/ml in PL2417 gas-permeable containers (20 ml). GM-CSF and IL-4 were added to the cultures at final concentrations of 50 ng/ml and 1000 U/ml or non-cytokine additives such as Vitamin D3 at 2.5 uM, Vitamin E at 0.1%, Linoleic Acid at 5 ug/ml, or Ca++ Ionophore at 10 mM. Addition and subtraction of cells, media, and growth factors to and from PL2417 gas-permeable containers was accomplished by spiking a Sampling Site Coupler into the sample port of the container followed by use of syringes and needles. Cells were cultured in a 5% CO2, ambient O2, 37° C. humidified incubator for 7 days.
as §2
The S100 protein is a nerve cell protein that has been associated with dendritic cells. In Table 47, at day 7 of culture, the highest percent of S100+ cells was present in the GM-CSF/IL-4 culture (13%).

CCCCC/C=C\C/C=C\CCCCCCCC(=O)O [Linoleic Acid]
% S100+ (adherent PBMNC; Day 4, with GM-CSF present): 12.00% | % S100+ (adherent PBMNC; Day 4, without GM-CSF): 20.00% | % S100+ (adherent PBMNC; Day 7, with GM-CSF present): 26.00% | % S100+ (adherent PBMNC; Day 7, without GM-CSF): 25.00% | percentage of S100+ cells (adherent PBMNC; day 4): 20% | percentage of S100+ cells (adherent PBMNC; day 7): next highest percentages | Allogeneic MLR. Increase Over Background Proliferation (T cells; Day 7, Cell Culture:T cell Ratio 1:1): 6.1 | Allogeneic MLR. Increase Over Background Proliferation (T cells; Day 7, Cell Culture:T cell Ratio 1:10): 3.1 | Allogeneic MLR. Increase Over Background Proliferation (T cells; Day 7, Cell Culture:T cell Ratio 1:100): 1.1 | percent of S100+ cells (Bulk PBMNC): equivalent average percentages
